Data reported in US12622917B2, “High-activity Wnt pathway inhibitor compound” (ADLAI NORTYE BIOPHARMA CO., LTD., priority 2020, dated 2026).
pIC50: −log10 of the molar value.

Legend:
NCI-H929 = experiment: Proliferation inhibition, NCI-H929 cell line; type: cell-based, human; conditions: Homo sapiens; NCI-H929 cells, 96 hours culture, cell viability detection; read-out: Antiproliferative IC50 NCI-H929
In short: (§1)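 Wnt-dependent proliferation in HepG2 and NCI-H929 cells, seeded at 4000 cells/well and pre-incubated 20-24 h at 37 °C. Cells were then exposed for 96 h to 3-fold serial dilutions (top final concentration 20 uM), and viability was read by signal intensity. IC50 was referenced to DMSO-only wells and cell-free wells.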

Hela = experiment: Proliferation inhibition, non-Wnt mutant control cell line Hela; type: cell-based; conditions: Homo sapiens, Wnt-independent control cell line, 96 hours, read-out: Antiproliferative IC50 Hela
From the text: The cell lines used in the experiment are Colo205 and DU4475 cell lines whose Wnt pathway is continuously activated and whose proliferation is Wnt pathway-dependent; while the BELA and RKO cell lines, whose Wnt pathway is not activated under normal circumstances and the proliferation is independent of Wnt pathway, as control cell lines. It is Judged that the inhibitory effect of the compound of the present invention on Wnt-dependent proliferation is not caused by other non-specific toxicity.
Treat the Colo205, Du4475, HELA and RKO cell lines cultured in their respective mediums in the logarithmic growth phase, collect the cells and prepare a uniform cell suspension of known concentration, and then add it to the 96-well cell culture plate Cell suspension, so that each well contains 1000 cells. Put it into a 5% CO2 incubator and incubate at 37° C. for 20-24 h. On the second day, the fully dissolved, 3-fold serially diluted compound was added to each cell culture well, so that the final maximum concentration in the cell culture well was 20 uM, and the culture was continued for 96 hours. In this test, Promega's cell viability detection test is used for detection. The more the cells proliferate, the stronger the final signal intensity will be. The detection instrument is SpectraMax, full wavelength mode. The wells only added with DMSO were used as positive control wells, and the wells that were not inoculated with cells were used as negative control wells. […] The IC50 value of cell proliferation inhibition was used to evaluate the inhibitory effect of the compound on the Wnt pathway and the toxic effect on normal cells (Table 2).

HepG2 = experiment: Proliferation inhibition, HepG2 cell line; type: cell-based; conditions: Homo sapiens; HepG2 cells, 96 hours culture, cell viability detection; read-out: Antiproliferative IC50 HepG2
In short: as §1

RKO = experiment: Proliferation inhibition, non-Wnt mutant control cell line RKO; type: cell-based; conditions: Homo sapiens, Wnt-independent control cell line, 96 hours, read-out: Antiproliferative IC50 RKO
In short: (§2)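 Log-phase cells are plated (1000 per well) and allowed to settle for 20-24 h at 37° C. Compound is added in 3-fold steps, highest final concentration 20 uM, and growth continues for 96 hours before a Promega viability measurement, from which the IC50 is obtained.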

DU4475 = experiment: Proliferation inhibition, Wnt mutant cell line DU4475; type: cell-based; conditions: Homo sapiens, DU-4475; DU4475, Wnt pathway-dependent, 96 hours; read-out: Antiproliferative IC50 DU4475
In short: as §2

Colo205 = experiment: Proliferation inhibition, Wnt mutant cell line Colo205; type: cell-based; conditions: Homo sapiens, COLO 205; Colo205, Wnt pathway-dependent, 96 hours; read-out: Antiproliferative IC50 Colo205
In short: as §2

[1] = tested on: Colo205-LUC-TCF/LEF M1 reporter cell line (Wnt pathway); experiment: Colo205-LUC-TCF/LEF M1 reporter gene (luciferase) inhibition; type: cell-based; conditions: 4 hours incubation, luciferase readout
In short: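 Luminescent readout of TCF/LEF-regulated luciferase after a 4 h, 37° C compound exposure in a stable Colo205 reporter clone (10,000 cells/well). Serial 3-fold dilutions started at 20 uM; IC50 derived using DMSO-treated cells and no-cell wells as controls.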

SMILES	pIC50 (NCI-H929)	pIC50 (Hela)	pIC50 (HepG2)	pIC50 (RKO)	pIC50 (DU4475)	pIC50 (Colo205)	pIC50 [1]
CO[C@H](C)[C@H]1C(=O)N2CCCc3nc(NCc4ccc(Oc5ccc(C(F)(F)F)nc5)nc4)nc(c32)N1C [114 (W243), (S)-5-((R)-1-methoxyethyl)-4-methyl-2-(((6-((6-(trifluoromethyl)pyridin-3-yl)oxo)pyridin-3-yl)methyl)amino)-4,5,9,10-tetrahydro-6H,8H-pyrido[3,2,1-de]pteridin-6-one]	7.22	< 5.00	7.43	< 5.00	7.70	7.64	7.57
C[C@H]1Cn2ccc3nc(NCc4cnn(CC(F)(F)F)c4)nc(c32)N1C [80 (W104)]	–	< 5.00	8.03	< 5.00	7.56	7.61	8.00
COC[C@H]1Cn2ccc3nc(NCc4cnn(Cc5ccc(C(F)(F)F)nc5)c4)nc(c32)N1C [68 (W49)]	–	< 5.00	8.36	< 5.00	7.89	8.09	7.92
[2H]C([2H])([2H])N1c2nc(NCc3ccc(Oc4ccc(C(F)(F)F)nc4)nc3)nc3c2N(CCC3)C(=O)[C@@H]1C [105 (W199)]	7.35	< 5.00	7.36	< 5.00	7.51	7.68	7.51
O=C1[C@@H]2CCCN2c2nc(NCc3ccc(Oc4ccc(C(F)(F)F)nc4)nc3)nc3c2N1CCC3 [111 (W241), (S)-2-(((6-((6-(trifluoromethyl)pyridin-3-yl)oxo)pyridin-3-yl)methyl)amino)-5,6,8a,9, 10,11-hexahydro-4H,8H-pyrido[3,2,1-de]pyrrolo[2,1-h]pteridin-8-one]	7.03	< 5.00	7.40	< 5.00	7.43	7.70	7.68
C[C@H]1C(=O)N2CCCc3nc(NCc4ccc(Oc5cnc(C(F)(F)F)nc5)nc4)nc(c32)N1C [91 (W221)]	7.19	< 5.00	7.46	< 5.00	7.62	7.51	7.55
C[C@H]1Cn2ccc3nc(NCc4ccc(OCC(F)(F)F)nc4)nc(c32)N1C [82 (W107)]	–	5.84	9.00	5.74	7.96	7.91	8.22
CN1CC(F)(F)Cn2ccc3nc(NCc4cnn(Cc5ccc(C(F)(F)F)nc5)c4)nc1c32 [Example 26, 8,8-difluoro-6-methyl-N-((1-((6-(trifluoromethyl)pyridin-3-yl)methyl)-1H-pyrazol-4-yl)methyl)-6,7,8,9-tetrahydro-3,5,6,9a-tetraazabenzo[cd]azulene-4-amine]	–	< 5.00	–	< 5.00	7.55	7.46	7.72
COC[C@H]1C(=O)N2CCCc3nc(NCc4ccc(Oc5ccc(C(F)(F)F)nc5)nc4)nc(c32)N1C [106 (W190), (S)-5-(methoxymethyl)-4-methyl-2-(((6-((6-(trifluoromethyl)pyridin-3-yl)oxo)pyridin-3-yl)methyl)amino)-4,5,9,10-tetrahydro-6H,8H-pyrido[3,2,1-de]pteridin-6-one]	–	< 5.00	–	< 5.00	7.34	7.52	7.27
C[C@H]1C(=O)N2CCCc3nc(NCc4ccc(Oc5ccnc(C(F)(F)F)c5)nc4)nc(c32)N1C [100 (W239)]	–	< 5.00	–	< 5.00	7.28	7.23	7.30
CN1c2nc(NCc3cnn(CC(F)(F)F)c3)nc3ccn(c23)CC1(C)C [84 (W123)]	–	5.32	–	5.26	7.44	7.39	7.77
